Measurements from US6420367B1, “Pyrimidine derivatives exhibiting antitumor activity” (Shionogo & Co., Ltd., priority 1998, dated 2002).
Converted amounts (≈) assume the structure as drawn.

What was measured:
[1] = tested on: DT-R cells (pRRE3-luc-transfected v-ki-ras-transformed NIH3T3 cells); signal derived from Ras oncogene products; test: Inhibitory effect against cellular signaling derived from Ras oncogene products: luciferase reporter, dissociation of DT-R from DT-C activity (MAC); type: cell-based, mouse; details: minimal tested concentration at which luciferase activities of DT-C cells and DT-R cells dissociated
Excerpt: Test Example 1 Inhibitory Effect Against Cellular Signaling Derived From Ras Oncogene Products
1) Establishment of Cell Lines Used in Assay
Based on the reporter plasmid (pGV-P (Toyo Ink, Japan)), in which luciferase gene was ligated to SV40-derived minimal promoter, we constructed a plasmid designated pRRE3-luc by inserting 3 copies of chemically synthesized oligonucleotides (Sequence: CAGGATATGACTCT, derived from mouse NVL-3 (M. A. Reddy et al.(1992)Mol. Endocrinol., 6, 1051)) into upstream of the promoter. v-ki-ras-transformed NIH3T3 cells (DT cells, provided by Dr. Makoto Noda (Kyoto Univ., School of medicine)) were transfected with this plasmid by liposome-mediated transfection and transfected cell lines stably incorporated and maintained each plasmid were obtained. We named pGV-P and pRRE3-transfected cell line as DT-C and DT-R, respectively and used in the assay described below.
2) Preparation of Samples
i) All the cell lines were cultured in Dulbecco's Modified Essential Medium (DMEM: 10% Fetal Calf Serum(FCS: Hyclone, USA)) including […] kanamycin (Meiji Seika, Japan) in humidified incubator under condition of 5% CO2 at 37° C.
ii) DT-C and DT-R cells were seeded at 2500 cells/well into flat-bottom 96 well multiplate (Sumitomo bakelite) and incubated for 24 hours.
iii) Test compounds were prepared as 1 mg/ml DMSO solution.
iv) The solution of test compounds were added to the culture. Tested compounds are used at the concentration from […] to 0.51 ng/ml with by 3-fold dilution.
v) After 24 hours, the culture supernatant was completely aspirated and […] of cell-lysing solution (PGC-50 (Toyo Ink, Japan)) was added before cells were dried up. In order to the cells were lysed completely, multiwell plates were left at room temperature for 10 to 30 min. The plates were wrapped up and stored at −20° C. till the day of measurement.
3) Measurement of Samples
i) Melt the samples by putting 96 well multiplate at 37° C. and add 90 μl/well 25 mM Tris (pH 7.5).
ii) Transfer 50 μl of the sample (110 μl) to the 96 well microplate for measurement (Microlite 1 (Dynatech)).
iii) Measure the samples by the luminometer, LUMINOUS CT9000D (Dia-Yatron, Japan). We used Pickagene luminescence kit PGL2000 or LT2.0 (Toyo Ink, Japan) as substrates for luminescence measurement (50 μl/well).
4) Judgment of the Results
i) The luciferase activity of DT-C cells and DT-R cells were plotted in the graph where the relative activity and the compound concentration were expressed as Y-axis and X-axis, respectively. We judged by the degree of dissociation between the activities of DT-C cells and DT-R cells as an index.
ii) Concretely, efficacy of the compound was expressed by two values described below.
a) Among the points of concentration tested, the minimal concentration (Minimal Active Concentration: MAC), at which the activities of DT-C cells and DT-R cells dissociated, was shown as an index of efficacy of the compound.

[2] = tested on: human squamous lung cancer RERF-RC-AI; test: In vitro cell growth inhibition test, MTT assay; type: cell-based; details: MTT assay 4 days after compound addition
Excerpt: (§1) Test Example 2 In Vitro Cell Growth Inhibition Test Cells and MTT Assay
(§2) Human squamous lung cancer […], human squamous lung cancer Ma44, human lung adenocarcinoma A549, human colon cancer HT29 and human pancreas cancer PANC-1 were used.

human colon cancer HT29 = test: In vitro cell growth inhibition test, MTT assay; type: cell-based; details: MTT assay 4 days after compound addition
Excerpt: as §1, §2

[3] = tested on: human lung adenocarcinoma A549; test: In vitro cell growth inhibition test, MTT assay; type: cell-based; details: MTT assay 4 days after compound addition
Excerpt: as §1, §2

[4] = tested on: human pancreas cancer PANC-1; test: In vitro cell growth inhibition test, MTT assay; type: cell-based; details: MTT assay 4 days after compound addition
Excerpt: as §1, §2

[5] = tested on: human squamous lung cancer Ma44; test: In vitro cell growth inhibition test, MTT assay; type: cell-based; details: MTT assay 4 days after compound addition
Excerpt: as §1, §2

Row | Compound | MAC (Minimal Active Concentration) [1] [µg/mL] | IC50, RERF-LC-AI [2] [µg/mL] | IC50, HT29 (human colon cancer HT29) [µg/mL] | IC50, A549 [3] [µg/mL] | IC50, PANC-1 [4] [µg/mL] | IC50, Ma44 [5] [µg/mL]
1 | CCNC(=Nc1ncncc1CSc1nnc(-c2ccc([N+](=O)[O-])cc2)o1)N(C)C [Compound A-190] | 0.0412 | – | – | – | – | –
2 | CCC(=O)Nc1ccccc1-c1nnc(SCc2cnc(C)nc2N=C(N)NC)o1 [Compound A-20] | – | 0.02 (≈ 0.0469 µM) | – | – | – | –
3 | CCNC(=Nc1nc(C)ncc1CSc1nnc(-c2ccc(OCC)cc2)o1)NCC [Compound A-101] | – | – | 0.052 (≈ 0.118 µM) | 0.79 (≈ 1.79 µM) | 0.077 (≈ 0.174 µM) | 0.21 (≈ 0.476 µM)
4 | CCNC(=Nc1ncncc1CSc1nnc(-c2csc([N+](=O)[O-])c2)o1)NCC [Compound D-43] | – | 0.21 (≈ 0.483 µM) | 0.1 (≈ 0.23 µM) | 0.27 (≈ 0.621 µM) | 0.1 (≈ 0.23 µM) | 0.2 (≈ 0.46 µM)
5 | CCNC(=Nc1nc(C)ncc1CSc1nnc(-c2ccccc2Cl)o1)NCC [Compound A-77] | – | 0.03 (≈ 0.0695 µM) | 0.044 (≈ 0.102 µM) | 0.13 (≈ 0.301 µM) | 0.048 (≈ 0.111 µM) | 0.11 (≈ 0.255 µM)
6 | CCNC(N)=Nc1nc(C)ncc1CSc1nnc(-c2ccccc2N)o1 [Compound A-8] | – | 0.01 (≈ 0.026 µM) | 0.008 (≈ 0.0208 µM) | 0.012 (≈ 0.0312 µM) | – | –
7 | CCNC(=Nc1ncncc1CSc1nnc(-c2ccc(N)cc2)o1)NCCO [Compound A-113] | – | 0.027 (≈ 0.0651 µM) | 0.076 (≈ 0.183 µM) | 0.62 (≈ 1.5 µM) | – | 1.2 (≈ 2.9 µM)
8 | CCCc1ccc(-c2nnc(SCc3cncnc3N=C(NCC)NCC)o2)cc1 [Compound A-116] | – | 0.62 (≈ 1.46 µM) | 0.072 (≈ 0.169 µM) | 3.8 (≈ 8.93 µM) | – | 4.2 (≈ 9.87 µM)
9 | CCNC(=Nc1ncncc1CSc1nnc(-c2ccc(CC)cc2)o1)NCC [Compound A-114] | 1.11 | 0.029 (≈ 0.0705 µM) | 0.045 (≈ 0.109 µM) | 0.32 (≈ 0.778 µM) | – | 0.83 (≈ 2.02 µM)
10 | CCNC(=Nc1nc(C)ncc1CSc1nnc(-c2ccccc2O)o1)NC [Compound A-27] | – | 0.079 (≈ 0.198 µM) | – | 0.69 (≈ 1.73 µM) | – | 1 (≈ 2.5 µM)
11 | CCNC(=Nc1nc(C)ncc1CSc1nnc(-c2ccccc2)o1)NC [Compound A-21] | – | 0.02 (≈ 0.0522 µM) | – | – | – | –
12 | C=C(Br)CNC(=Nc1ncncc1CSc1nnc(-c2ccc(N)cc2)o1)NCC [Compound A-111] | 0.123 | 0.017 (≈ 0.0347 µM) | 0.035 (≈ 0.0715 µM) | 0.097 (≈ 0.198 µM) | – | 0.4 (≈ 0.817 µM)
13 | CCNC(=Nc1nc(C)ncc1CSc1nnc(-c2ccc(Cl)cc2)o1)NCC [Compound A-62] | 0.0412 | 0.0078 (≈ 0.0181 µM) | – | – | 0.017 (≈ 0.0394 µM) | 0.024 (≈ 0.0556 µM)
14 | CCNC(=Nc1nc(C)ncc1CSc1nnc(-c2ccccc2NC(=O)CC)o1)NC [Compound A-23] | 0.123 | 0.0078 (≈ 0.0172 µM) | – | 0.041 (≈ 0.0902 µM) | – | 0.025 (≈ 0.055 µM)
15 | CCNC(=Nc1nc(C)ncc1CSc1nnc(-c2cccc(N)c2)o1)NCC [Compound A-41] | – | – | 0.072 (≈ 0.175 µM) | – | – | 0.065 (≈ 0.158 µM)
16 | CNC(=Nc1nc(C)ncc1CSc1nnc(-c2ccc([N+](=O)[O-])cc2)o1)NC.Cl [Compound A-159] | 0.0412 | – | – | – | – | –
17 | CCNC(=Nc1nc(C)ncc1CSc1nnc(-c2ccc(NC(C)=O)cc2)o1)NCC [Compound A-56] | – | – | – | 0.18 (≈ 0.396 µM) | 0.085 (≈ 0.187 µM) | 0.85 (≈ 1.87 µM)
18 | CCNC(=Nc1nc(C)ncc1CSc1nnc(-c2ccccc2NC(C)=O)o1)NCC [Compound A-25] | 0.370 | 0.0078 (≈ 0.0172 µM) | – | 0.032 (≈ 0.0704 µM) | – | 0.031 (≈ 0.0682 µM)

Row | Compound | MAC (Minimal Active Concentration) [1] [µg/mL] | IC50, RERF-LC-AI [2] [µg/mL] | IC50, HT29 (human colon cancer HT29) [µg/mL] | IC50, A549 [3] [µg/mL] | IC50, PANC-1 [4] [µg/mL] | IC50, Ma44 [5] [µg/mL]
19 | CNC(N)=Nc1nc(C)ncc1CSc1nnc(-c2ccccc2NC(C)=O)o1 [Compound A-19] | – | 0.02 (≈ 0.0485 µM) | – | – | – | –
20 | CCNC(N)=Nc1nc(C)ncc1CSc1nnc(-c2ccccc2NC(C)=O)o1 [Compound A-18] | – | 0.0022 (≈ 0.00516 µM) | – | – | – | –
21 | CCNC(=Nc1ncncc1CSc1nnc(-c2ccc(-n3cccc3)nc2)o1)NCC [Compound D-35] | – | 2.5 (≈ 5.56 µM) | 0.025 (≈ 0.0556 µM) | 4.6 (≈ 10.2 µM) | – | 1.5 (≈ 3.34 µM)
22 | CCNC(=Nc1nc(C)ncc1CSc1nnc(-c2ccccc2NC)o1)NC [Compound A-38] | 0.0412 | 0.014 (≈ 0.0339 µM) | 0.023 (≈ 0.0558 µM) | – | 0.028 (≈ 0.0679 µM) | 0.034 (≈ 0.0824 µM)
23 | Cc1ncc(CSc2nnc(-c3ccccc3N)o2)c(N=C(N)NCc2ccccc2)n1 [Compound A-12] | – | 0.87 (≈ 1.95 µM) | 0.51 (≈ 1.14 µM) | – | – | –
24 | CCCCNC(N)=Nc1nc(C)ncc1CSc1nnc(-c2ccccc2N)o1 [Compound A-9] | – | 0.025 (≈ 0.0606 µM) | 0.1 (≈ 0.242 µM) | 0.09 (≈ 0.218 µM) | – | –
25 | CNC(N)=Nc1nc(C)ncc1CSc1nnc(-c2ccccc2N)o1.Cl.Cl [Compound A-5] | – | 0.2 | 0.15 | 0.16 | – | –
26 | CCCNC(=Nc1nc(C)ncc1CSc1nnc(-c2ccc(N)cc2OC)o1)NCCC [Compound A-156] | – | 0.016 (≈ 0.034 µM) | 0.023 (≈ 0.0489 µM) | – | 0.025 (≈ 0.0531 µM) | 0.072 (≈ 0.153 µM)
27 | CCNC(=Nc1nc(C)ncc1CSc1nnc(-c2ccccc2NCC)o1)NC [Compound A-40] | 0.370 | – | 0.049 (≈ 0.115 µM) | – | – | 0.071 (≈ 0.166 µM)
28 | CCNC(=Nc1ncncc1CSc1nnc(-c2ccc(C(C)C)cc2)o1)NCC [Compound A-115] | – | 0.43 (≈ 1.01 µM) | 0.065 (≈ 0.153 µM) | 4.6 (≈ 10.8 µM) | – | 5.8 (≈ 13.6 µM)
29 | CCNC(=Nc1ncncc1CSc1nnc(-c2cnc(C)cn2)o1)NCC [Compound D-32] | – | 0.013 (≈ 0.0325 µM) | 0.013 (≈ 0.0325 µM) | 3.5 (≈ 8.76 µM) | – | 3.1 (≈ 7.76 µM)
30 | CCNC(=Nc1nc(C)ncc1CSc1nnc(-c2ccc(I)cc2)o1)NCC [Compound A-105] | – | – | 0.064 (≈ 0.122 µM) | 0.11 (≈ 0.21 µM) | 0.086 (≈ 0.164 µM) | 0.091 (≈ 0.174 µM)
31 | CCNC(N)=Nc1nc(C)ncc1CSc1nnc(-c2ccccc2NC(=O)CC)o1 [Compound A-22] | – | 0.02 (≈ 0.0454 µM) | – | – | – | –
32 | CCNC(=Nc1nc(C)ncc1COc1nnc(-c2ccccc2N)o1)NC [Compound B-2] | 0.370 | – | – | – | – | –
33 | CCNC(=Nc1nc(C)ncc1CSc1nnc(-c2cc(F)ccc2N)o1)NCC [Compound A-50] | – | 0.047 (≈ 0.109 µM) | 0.09 (≈ 0.209 µM) | – | – | 0.26 (≈ 0.604 µM)
34 | CCNC(=Nc1nc(C(F)(F)F)ncc1CSc1nnc(-c2ccccc2N)o1)NCC [Compound A-46] | – | 0.14 (≈ 0.3 µM) | 0.32 (≈ 0.686 µM) | – | – | 1.8 (≈ 3.86 µM)
35 | CCNC(=Nc1ncncc1CSc1nnc(-c2ccc([N+](=O)[O-])cc2Cl)o1)NCC [Compound A-126] | 0.0137 | 0.012 (≈ 0.0259 µM) | 0.014 (≈ 0.0302 µM) | 0.028 (≈ 0.0605 µM) | – | 0.17 (≈ 0.367 µM)
36 | CCNC(=Nc1ncncc1CSc1nnc(-c2ccc(C(C)=O)cc2)o1)NCC [Compound A-117] | – | 0.16 (≈ 0.376 µM) | 0.017 (≈ 0.04 µM) | 1.1 (≈ 2.59 µM) | – | 8.6 (≈ 20.2 µM)
